Results from ChEMBL document CHEMBL1201862, “PubChem BioAssay data set” (2004).
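Grown in 96-well plates, cells were treated for 48 hours with each compound at five concentrations. Insufficient inhibition: endpoint recorded as highest concentration tested. Here, GI50 denotes the concentration required for 50% inhibition of growth.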 The source made the active and inactive calls. Rule as the data show it: active = GI50 up to about 1.1 µM and inactive = higher.

Legend:
Assay in all cases: NCI anticancer screen, dose series, 48 h
CCRF-CEM = test system: CCRF-CEM
COLO 205 = test system: COLO 205
DU-145 = test system: DU-145
EKVX = test system: EKVX
HCT-116 = test system: HCT-116
HL-60 = test system: HL-60
MCF7 = test system: MCF7
MDA-MB-231 = test system: MDA-MB-231
Malme-3M = test system: Malme-3M
NCI-H522 = test system: NCI-H522
OVCAR-4 = test system: OVCAR-4
OVCAR-5 = test system: OVCAR-5
SW-620 = test system: SW-620
T47D = test system: T47D
UACC-62 = test system: UACC-62
UO-31 = test system: UO-31
ACHN = test system: ACHN
TK-10 = test system: TK-10
NCI-H460 = test system: NCI-H460

SMILES | GI50 (CCRF-CEM) | GI50 (COLO 205) | GI50 (DU-145) | GI50 (EKVX) | GI50 (HCT-116) | GI50 (HL-60) | GI50 (MCF7) | GI50 (MDA-MB-231) | GI50 (Malme-3M) | GI50 (NCI-H522) | GI50 (OVCAR-4) | GI50 (OVCAR-5) | GI50 (SW-620) | GI50 (T47D) | GI50 (UACC-62) | GI50 (UO-31) | GI50 (ACHN) | GI50 (TK-10) | GI50 (NCI-H460)
Clc1cc2ncn(C3CCCCO3)c2cc1Cl (stereo not given) | 56.2 µM (inactive) | 77.3 µM (inactive) | 81.8 µM (inactive) | 20 µM (inactive) | 51.9 µM (inactive) | 30.1 µM (inactive) | 74 µM (inactive) | 74.1 µM (inactive) | > 100 µM (inactive) | 4.7 µM (inactive) | 48.9 µM (inactive) | > 100 µM (inactive) | 53.7 µM (inactive) | 44.6 µM (inactive) | 53.5 µM (inactive) | 16.1 µM (inactive) | – | – | –
Nc1cc2c3c(cccc3c1)C(=O)N(c1ccc(OCCN3CCCCC3)cc1)C2=O | 21.2 µM (inactive) | 13.4 µM (inactive) | 16.9 µM (inactive) | 20.4 µM (inactive) | 11.3 µM (inactive) | 4.89 µM (inactive) | 19.1 µM (inactive) | 14.2 µM (inactive) | 14.5 µM (inactive) | 18.5 µM (inactive) | 17.1 µM (inactive) | 20.8 µM (inactive) | 20.6 µM (inactive) | 20.4 µM (inactive) | 19.1 µM (inactive) | 9.73 µM (inactive) | 15.9 µM (inactive) | 16.5 µM (inactive) | –
COC(=O)C1=C(O)C(C(=O)OC)[C@]2(O)[C@H](C(=O)OC)[C@H]1C[C@@H](c1ccc(C(F)(F)F)cc1)[C@H]2C(=O)OC (stereo not given in full) | – | 3.18 µM (inactive) | 4.24 µM (inactive) | 10.6 µM (inactive) | 2.54 µM (inactive) | 5.48 µM (inactive) | 3.5 µM (inactive) | 4.22 µM (inactive) | 3.78 µM (inactive) | – | 5.55 µM (inactive) | 3.63 µM (inactive) | 2.76 µM (inactive) | 3.44 µM (inactive) | 3.87 µM (inactive) | 2.84 µM (inactive) | 3.46 µM (inactive) | 4.73 µM (inactive) | 3.34 µM (inactive)
CC1=CN(c2ccccc2)S2=C1c1sc3c(c1N2c1ccc(Br)cc1)CCCC3 (stereo not given) | > 100 µM (inactive) | > 100 µM (inactive) | > 100 µM (inactive) | > 100 µM (inactive) | > 100 µM (inactive) | > 100 µM (inactive) | > 100 µM (inactive) | > 100 µM (inactive) | – | > 100 µM (inactive) | > 100 µM (inactive) | 96.8 µM (inactive) | > 100 µM (inactive) | 91.2 µM (inactive) | > 100 µM (inactive) | > 100 µM (inactive) | > 100 µM (inactive) | > 100 µM (inactive) | > 100 µM (inactive)
CCOC(=O)C(C(=O)OCC)C(=S)NC1OC(COC(C)=O)C(OC(C)=O)C(OC(C)=O)C1OC(C)=O (stereo not given) | > 100 µM (inactive) | > 100 µM (inactive) | > 100 µM (inactive) | > 100 µM (inactive) | > 100 µM (inactive) | > 100 µM (inactive) | > 100 µM (inactive) | > 100 µM (inactive) | > 100 µM (inactive) | > 100 µM (inactive) | > 100 µM (inactive) | > 100 µM (inactive) | > 100 µM (inactive) | > 100 µM (inactive) | > 100 µM (inactive) | > 100 µM (inactive) | – | – | > 100 µM (inactive)
CCC(C)C(NC(=O)C(CCCC[N+](=N)N)NC(=O)C(CCCC[N+](=N)N)NC(=O)c1ccc(OC)cc1)C(=O)NC(CCCC[N+](=N)N)C(=O)N1CCCC1C(=O)NC(CCCCN)C(=O)NC(CC(C)C)C(N)=O (stereo not given) | > 100 µM (inactive) | > 100 µM (inactive) | > 100 µM (inactive) | > 100 µM (inactive) | > 100 µM (inactive) | – | > 100 µM (inactive) | > 100 µM (inactive) | > 100 µM (inactive) | > 100 µM (inactive) | > 100 µM (inactive) | > 100 µM (inactive) | > 100 µM (inactive) | > 100 µM (inactive) | > 100 µM (inactive) | > 100 µM (inactive) | > 100 µM (inactive) | > 100 µM (inactive) | > 100 µM (inactive)
CC1(C)N=C(/C(C#N)=[N+](/[O-])C(=O)c2ccccc2)C(C)(C)N1O | > 100 µM (inactive) | > 100 µM (inactive) | > 100 µM (inactive) | > 100 µM (inactive) | > 100 µM (inactive) | > 100 µM (inactive) | > 100 µM (inactive) | > 100 µM (inactive) | > 100 µM (inactive) | – | > 100 µM (inactive) | > 100 µM (inactive) | > 100 µM (inactive) | > 100 µM (inactive) | > 100 µM (inactive) | > 100 µM (inactive) | > 100 µM (inactive) | > 100 µM (inactive) | > 100 µM (inactive)
CC(C)/C(Cl)=N\OC(=O)Nc1ccc(F)cc1 | 0.916 µM (active) | 2.63 µM (inactive) | 16.3 µM (inactive) | 5.62 µM (inactive) | 6.61 µM (inactive) | 1.55 µM (inactive) | 4.62 µM (inactive) | 3.47 µM (inactive) | 1.95 µM (inactive) | 1.52 µM (inactive) | – | 14.6 µM (inactive) | 1.69 µM (inactive) | 6.53 µM (inactive) | 16 µM (inactive) | 5.85 µM (inactive) | 3.55 µM (inactive) | 4.8 µM (inactive) | 18.1 µM (inactive)
CC(C)Nc1n[nH]c(=O)n1C(C)C | > 100 µM (inactive) | > 100 µM (inactive) | > 100 µM (inactive) | > 100 µM (inactive) | > 100 µM (inactive) | > 100 µM (inactive) | > 100 µM (inactive) | > 100 µM (inactive) | – | – | – | > 100 µM (inactive) | > 100 µM (inactive) | > 100 µM (inactive) | > 100 µM (inactive) | > 100 µM (inactive) | > 100 µM (inactive) | > 100 µM (inactive) | > 100 µM (inactive)
S=C(NN=C1NCCCCN1)Nc1ccccc1 | 19.8 µM (inactive) | 6.68 µM (inactive) | > 100 µM (inactive) | 66.4 µM (inactive) | 24.5 µM (inactive) | 14.6 µM (inactive) | 31.2 µM (inactive) | > 100 µM (inactive) | > 100 µM (inactive) | 21.2 µM (inactive) | – | > 100 µM (inactive) | – | > 100 µM (inactive) | > 100 µM (inactive) | 34 µM (inactive) | 28.9 µM (inactive) | – | 37.2 µM (inactive)
COc1ccc(C2=C(N)c3cc(OC)ccc3C2=O)cc1 | – | > 100 µM (inactive) | > 100 µM (inactive) | > 100 µM (inactive) | > 100 µM (inactive) | > 100 µM (inactive) | > 100 µM (inactive) | > 100 µM (inactive) | > 100 µM (inactive) | > 100 µM (inactive) | > 100 µM (inactive) | > 100 µM (inactive) | > 100 µM (inactive) | 36.7 µM (inactive) | > 100 µM (inactive) | – | 49.9 µM (inactive) | – | > 100 µM (inactive)
COc1cc(C(=O)CBr)c(OC)cc1C | > 100 µM (inactive) | > 100 µM (inactive) | > 100 µM (inactive) | > 100 µM (inactive) | > 100 µM (inactive) | > 100 µM (inactive) | > 100 µM (inactive) | > 100 µM (inactive) | > 100 µM (inactive) | > 100 µM (inactive) | – | > 100 µM (inactive) | > 100 µM (inactive) | > 100 µM (inactive) | 85.7 µM (inactive) | 97.3 µM (inactive) | > 100 µM (inactive) | > 100 µM (inactive) | –
N=C(N)Nc1ccc(CC(N)C(=O)O)cc1 (stereo not given) | > 12.5 µM (inactive) | > 12.5 µM (inactive) | > 12.5 µM (inactive) | > 12.5 µM (inactive) | > 12.5 µM (inactive) | > 12.5 µM (inactive) | > 12.5 µM (inactive) | > 12.5 µM (inactive) | > 12.5 µM (inactive) | > 12.5 µM (inactive) | > 12.5 µM (inactive) | > 12.5 µM (inactive) | > 12.5 µM (inactive) | > 12.5 µM (inactive) | > 12.5 µM (inactive) | > 12.5 µM (inactive) | > 12.5 µM (inactive) | > 12.5 µM (inactive) | –
CN(C)c1nc(Cl)c2c(-c3ccccc3)c(-c3ccccc3)oc2n1 | 28.1 µM (inactive) | > 100 µM (inactive) | 52.4 µM (inactive) | > 100 µM (inactive) | 31.2 µM (inactive) | 12.2 µM (inactive) | 28.9 µM (inactive) | 43 µM (inactive) | – | 17.5 µM (inactive) | 75.7 µM (inactive) | > 100 µM (inactive) | 93.5 µM (inactive) | 83 µM (inactive) | 95.5 µM (inactive) | > 100 µM (inactive) | 70 µM (inactive) | > 100 µM (inactive) | –
O=C(CSc1nc2ccc(I)cc2c(=O)n1Cc1ccccc1)NN1C(=O)CSC1c1ccccc1 (stereo not given) | 29.2 µM (inactive) | 15.3 µM (inactive) | 26.4 µM (inactive) | 29.2 µM (inactive) | 24 µM (inactive) | 4.68 µM (inactive) | 19.2 µM (inactive) | 26.9 µM (inactive) | – | 15.6 µM (inactive) | 25.8 µM (inactive) | 53.8 µM (inactive) | 38 µM (inactive) | 28.1 µM (inactive) | 19.3 µM (inactive) | – | 18.2 µM (inactive) | 27.4 µM (inactive) | 18 µM (inactive)
C[N+]1(CCN[N+]2(C)CCCCC2)CCc2ccccc2C1 (stereo not given) | > 100 µM (inactive) | > 100 µM (inactive) | > 100 µM (inactive) | > 100 µM (inactive) | > 100 µM (inactive) | – | > 100 µM (inactive) | > 100 µM (inactive) | > 100 µM (inactive) | > 100 µM (inactive) | > 100 µM (inactive) | > 100 µM (inactive) | > 100 µM (inactive) | > 100 µM (inactive) | > 100 µM (inactive) | > 100 µM (inactive) | > 100 µM (inactive) | > 100 µM (inactive) | > 100 µM (inactive)
